Broadly, the IC50 is the point on the concentration scale where inhibition reaches its midpoint.

Bridge positions count the residues as written; N and C are the ends. Square brackets hold non-standard residues; d marks the D form. Peptide text beside a SMILES is read from it. * marks the point of attachment. ξ: configuration not given here. Bip = N[C@@H](Cc1ccc(-c2ccccc2)cc1)C(=O)O; Phe(3-Me) = Cc1cccc(C[C@H](N)C(=O)O)c1; NH(CH2)12COOH = O=C(O)CCCCCCCCCCCCN*; Val(3-OH) = CC(C)(O)[C@H](N)C(=O)O; hArg = N=C(N)NCCCC[C@H](N)C(=O)O; 4Pal = N[C@@H](Cc1ccncc1)C(=O)O; Cha = N[C@@H](CC1CCCCC1)C(=O)O; Cit = NC(=O)NCCC[C@H](N)C(=O)O; Thr(3ξ) = CC(O)[C@H](N)C(=O)O; 12Ado = NCCCCCCCCCCCC(=O)O; hCys = N[C@@H](CCS)C(=O)O; Carboxymethyl = O=C(O)C*; Orn = NCCC[C@H](N)C(=O)O; Aun = NCCCCCCCCCCC(=O)O; Dab = NCC[C@H](N)C(=O)O; Dap = NC[C@H](N)C(=O)O; AEEA = NCCOCCOCC(=O)O

The target of the assay is T1, PD-1/PD-L1 interaction (PE-labeled human PD-L1-Ig binding to Jurkat cell line over-expressing human PD-1) (Homo sapiens, UniProt Q15116).
T1 construct: expressed in transfected cells; host or cells: Jurkat
T1 sequence (Q15116 25-288): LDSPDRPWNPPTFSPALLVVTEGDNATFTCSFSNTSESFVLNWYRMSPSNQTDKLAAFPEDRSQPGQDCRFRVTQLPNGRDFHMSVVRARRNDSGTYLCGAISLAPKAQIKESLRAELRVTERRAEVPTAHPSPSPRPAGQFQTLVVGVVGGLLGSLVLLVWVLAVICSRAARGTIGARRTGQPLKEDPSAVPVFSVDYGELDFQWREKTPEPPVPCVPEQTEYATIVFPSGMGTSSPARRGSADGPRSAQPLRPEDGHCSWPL
Briefly: Jurkat-PD-1 Cell Binding High-Content Screening Assay (CBA). The settings on record: Jurkat cell line over-expressing human PD-1; PE-labeled PD-L1-Ig 20 nM final; read-out: Jurkat hPD1-PDL1 IC50. The format is cell-based. The method, boiled down: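 Binding of fluorescent PD-L1-Ig (phycoerythrin on Ig tag, 20 nM final, 1 h) measured by high-content imaging of fixed, Hoechst-counterstained Jurkat-hPD-1 cells. Compound added 2 h at 37° C beforehand, in DMEM with 10% fetal calf serum.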
In the case of `CC(C)C[C@H]1NC(=O)[C@H](CCCN)NC(=O)[C@H](Cc2ccc(O)cc2)NC(=O)[C@H](Cc2ccc(-c3ccccc3)cc2)NC(=O)[C@H](C(C)C)NC(=O)[C@H](Cc2c[nH]c3ccccc23)NC(=O)[C@H](CC(=O)O)NC(=O)[C@H](Cc2ccc(OCC(=O)O)cc2)NC(=O)[C@H](CCCNC(=N)N)NC(=O)CSC[C@@H](C(=O)N[C@@H](CCN)C(=O)NCCCCCCCCCCC(=O)O)NC(=O)[C@H](C(C)O)NC(=O)[C@H](C(C)C)NC(=O)[C@H](CC2CCCCC2)NC(=O)[C@H](CCN)NC1=O` (stereo partly drawn) [Compound 3413] ({CH2CO}-RY(Carboxymethyl)DWV[Bip]Y[Orn][dL][Dab][Cha]V[Thr(3ξ)]C[Dab][Aun]-OH; thioether N-14), the IC50 was found to be 33.3 nM.

In the case of `Cc1cccc(C[C@@H]2NC(=O)[C@H](CC(=O)O)NC(=O)[C@H](Cc3ccc(OCC(=O)O)cc3)NC(=O)[C@H](CCN)NC(=O)CSC[C@@H](C(=O)N[C@@H](CCN)C(=O)NCCOCCOCC(=O)NCCCCCCCCCCC(=O)O)NC(=O)[C@H](CC(=O)O)NC(=O)[C@H](C(C)C)NC(=O)[C@H](CC3CCCCC3)NC(=O)[C@H](CCN)NC(=O)[C@@H](CC(C)C)NC(=O)[C@H](CCCN)NC(=O)[C@H](Cc3ccc(OCC(=O)O)cc3)NC(=O)[C@H](Cc3ccc(-c4ccccc4)cc3)NC(=O)[C@H](Cc3ccc(OCC(=O)O)cc3)NC2=O)c1` [Compound 3801] ({CH2CO}-[Dab]Y(Carboxymethyl)D[Phe(3-Me)]Y(Carboxymethyl)[Bip]Y(Carboxymethyl)[Orn][dL][Dab][Cha]VDC[Dab][AEEA][Aun]-OH; thioether N-14), the IC50 was 2.5 nM.

With `CC(C)C[C@H]1NC(=O)[C@H](CCCN)NC(=O)[C@H](C(C)C)NC(=O)[C@H](Cc2ccc(-c3ccccc3)cc2)NC(=O)[C@H](C(C)C)NC(=O)[C@H](Cc2c[nH]c3ccccc23)NC(=O)[C@H](CC(=O)O)NC(=O)[C@H](Cc2ccc(OCC(=O)O)cc2)NC(=O)[C@H](CCCCNC(=N)N)NC(=O)CSC[C@@H](C(=O)N[C@@H](CCN)C(=O)NCCOCCOCC(=O)N[C@@H](CCCN)C(=O)NCCCCCCCCCCCC(=O)O)NC(=O)[C@H](CO)NC(=O)[C@H](C(C)C)NC(=O)[C@H](CC2CCCCC2)NC(=O)[C@H](CC(N)=O)NC1=O` [Compound 3177] ({CH2CO}-[hArg]Y(Carboxymethyl)DWV[Bip]V[Orn][dL]N[Cha]VSC[Dab][AEEA][Orn][12Ado]-OH; thioether N-14), the IC50 is 27.3 nM.

Turning to `Cc1cccc(C[C@@H]2NC(=O)[C@H](CC(=O)O)NC(=O)[C@H](Cc3ccc(OCC(=O)O)cc3)NC(=O)[C@H](CN)NC(=O)CSC[C@@H](C(=O)NCCOCCOCC(=O)NCCCCCCCCCCC(=O)O)NC(=O)[C@H](CCCN)NC(=O)[C@H](C(C)C)NC(=O)[C@H](CC3CCCCC3)NC(=O)[C@H](CCN)NC(=O)[C@@H](CC(C)C)NC(=O)[C@H](CCCN)NC(=O)[C@H](Cc3ccc(O)cc3)NC(=O)[C@H](Cc3ccc(-c4ccccc4)cc3)NC(=O)[C@H](C(C)C)NC2=O)c1` [Compound 2692] ({CH2CO}-[Dap]Y(Carboxymethyl)D[Phe(3-Me)]V[Bip]Y[Orn][dL][Dab][Cha]V[Orn]C[AEEA][Aun]-OH; thioether N-14), the IC50 was found to be 6.3 nM.

On to `CC(=O)NCC[C@@H]1NC(=O)[C@H](C(C)C)NC(=O)[C@H](CC2CCCCC2)NC(=O)[C@H](CCN)NC(=O)[C@@H](CC(C)C)NC(=O)[C@H](CCC(=O)O)NC(=O)[C@H](C(C)C)NC(=O)[C@H](Cc2ccc(-c3ccccc3)cc2)NC(=O)[C@H](CC(C)C)NC(=O)[C@H](Cc2c[nH]c3ccccc23)NC(=O)[C@H](CC(=O)O)NC(=O)[C@H](Cc2ccc(OCC(=O)O)cc2)NC(=O)[C@H](Cc2ccc(OCC(=O)O)cc2)NC(=O)CSC[C@@H](C(=O)NCCOCCOCC(=O)NCCCCCCCCCCC(=O)O)NC1=O` [Compound 3711] ({CH2CO}-Y(Carboxymethyl)Y(Carboxymethyl)DWL[Bip]VE[dL][Dab][Cha]V[Dab](Ac)C[AEEA][Aun]-OH; thioether N-14), for which the IC50 was found to be 91.5 nM.

`Cc1cccc(C[C@@H]2NC(=O)[C@H](CC(=O)O)NC(=O)[C@H](Cc3ccc(OCC(=O)O)cc3)NC(=O)[C@H](Cc3ccncc3)NC(=O)CSC[C@@H](C(=O)N[C@@H](CCN)C(=O)NCCCCCCCCCCC(=O)O)NC(=O)[C@H](CO)NC(=O)[C@H](C(C)(C)O)NC(=O)[C@H](CC3CCCCC3)NC(=O)[C@H](Cc3cnc[nH]3)NC(=O)[C@@H](CC(C)C)NC(=O)[C@H](CCCN)NC(=O)[C@H](Cc3ccc(OCC(=O)O)cc3)NC(=O)[C@H](Cc3ccc(-c4ccccc4)cc3)NC(=O)[C@H](Cc3ccc(OCC(=O)O)cc3)NC2=O)c1` [Compound 3721] ({CH2CO}-[4Pal]Y(Carboxymethyl)D[Phe(3-Me)]Y(Carboxymethyl)[Bip]Y(Carboxymethyl)[Orn][dL]H[Cha][Val(3-OH)]SC[Dab][Aun]-OH; thioether N-14): the IC50 stood at 18.4 nM.

With `CC(C)C[C@@H]1NC(=O)[C@H](Cc2c[nH]c3ccccc23)NC(=O)[C@H](CC(=O)O)NC(=O)[C@H](Cc2ccc(OCC(=O)O)cc2)NC(=O)[C@H](CN)NC(=O)CSC[C@@H](C(=O)N[C@@H](CCN)C(=O)NCCCCCCCCCCC(=O)O)NC(=O)[C@H](CCCCN)NC(=O)[C@H](C(C)O)NC(=O)[C@H](CC2CCCCC2)NC(=O)[C@H](CCN)NC(=O)[C@@H](CC(C)C)NC(=O)[C@H](CCCN)NC(=O)[C@H](Cc2ccc(O)cc2)NC(=O)[C@H](Cc2ccc(-c3ccccc3)cc2)NC1=O` (stereo partly drawn) [Compound 3693] ({CH2CO}-[Dap]Y(Carboxymethyl)DWL[Bip]Y[Orn][dL][Dab][Cha][Thr(3ξ)]KC[Dab][Aun]-OH; thioether N-14), the IC50 came to 59.8 nM.

`Cc1cccc(C[C@@H]2NC(=O)[C@H](CC(=O)O)NC(=O)[C@H](Cc3ccccc3)NC(=O)[C@H](CC(N)=O)NC(=O)CSCC[C@@H](C(=O)N[C@@H](CCCN)C(=O)NCCCCCCCCCCC(=O)O)NC(=O)[C@H](CCC(=O)O)NC(=O)[C@H](C(C)C)NC(=O)[C@H](CC(C)C)NC(=O)[C@H](CCN)NC(=O)[C@@H](CC(C)C)NC(=O)[C@H](CCCN)NC(=O)[C@H](CCCNC(N)=O)NC(=O)[C@H](Cc3ccc(-c4ccccc4)cc3)NC(=O)[C@H](C(C)C)NC2=O)c1` [Compound 2775] ({CH2CO}-NFD[Phe(3-Me)]V[Bip][Cit][Orn][dL][Dab]LVE[hCys][Orn][Aun]-OH; thioether N-14): the IC50 worked out at 173 nM.

As for `CC(C)C[C@H]1NC(=O)[C@H](CCCN)NC(=O)[C@H](C(C)C)NC(=O)[C@H](Cc2ccc(-c3ccccc3)cc2)NC(=O)[C@H](C(C)C)NC(=O)[C@H](Cc2c[nH]c3ccccc23)NC(=O)[C@H](CC(=O)O)NC(=O)[C@H](Cc2ccc(OCC(=O)O)cc2)NC(=O)[C@H](CN)NC(=O)CSC[C@@H](C(=O)N[C@@H](CCC(=O)O)C(=O)NCC(=O)NCCCCCCCCCCC(=O)O)NC(=O)[C@H]([C@@H](C)O)NC(=O)[C@H](C(C)C)NC(=O)[C@H](CC2CCCCC2)NC(=O)[C@H](Cc2cnc[nH]2)NC1=O` [Compound 1094] ({CH2CO}-[Dap]Y(Carboxymethyl)DWV[Bip]V[Orn][dL]H[Cha]VTCEG[Aun]-OH; thioether N-14), the IC50 amounted to 17.2 nM.

With `Cc1cccc(C[C@@H]2NC(=O)[C@H](CC(=O)O)NC(=O)[C@H](Cc3ccc(OCC(=O)O)cc3)NC(=O)[C@H](Cc3ccncc3)NC(=O)CSC[C@@H](C(=O)N[C@@H](CCN)C(=O)NCCCCCCCCCCC(=O)O)NC(=O)[C@H]([C@@H](C)O)NC(=O)[C@H](C(C)C)NC(=O)[C@H](CC3CCCCC3)NC(=O)[C@H](CCN)NC(=O)[C@@H](CC(C)C)NC(=O)[C@H](CCCN)NC(=O)[C@H](Cc3ccc(OCC(=O)O)cc3)NC(=O)[C@H](Cc3ccc(-c4ccccc4)cc3)NC(=O)[C@H](Cc3ccc(OCC(=O)O)cc3)NC2=O)c1` [Compound 2924] ({CH2CO}-[4Pal]Y(Carboxymethyl)D[Phe(3-Me)]Y(Carboxymethyl)[Bip]Y(Carboxymethyl)[Orn][dL][Dab][Cha]VTC[Dab][Aun]-OH; thioether N-14), the IC50 was 16.8 nM.

`Cc1cccc(C[C@@H]2NC(=O)[C@H](CC(=O)O)NC(=O)[C@H](Cc3ccc(OCC(=O)O)cc3)NC(=O)[C@H](CCN)NC(=O)CSC[C@@H](C(=O)N[C@@H](CCN)C(=O)NCCOCCOCC(=O)NCCCCCCCCCCCCC(=O)O)NC(=O)[C@H](CO)NC(=O)[C@H](C(C)(C)O)NC(=O)[C@H](CC3CCCCC3)NC(=O)[C@H](Cc3c[nH]cn3)NC(=O)[C@@H](CC(C)C)NC(=O)[C@H](CCCN)NC(=O)[C@H](Cc3ccc(OCC(=O)O)cc3)NC(=O)[C@H](Cc3ccc(-c4ccccc4)cc3)NC(=O)[C@H](Cc3ccc(OCC(=O)O)cc3)NC2=O)c1` [Compound 2875] ({CH2CO}-[Dab]Y(Carboxymethyl)D[Phe(3-Me)]Y(Carboxymethyl)[Bip]Y(Carboxymethyl)[Orn][dL]H[Cha][Val(3-OH)]SC[Dab][AEEA]-{NH(CH2)12COOH}; thioether N-14): the IC50 turned out to be 8.3 nM.

Turning to `Cc1cccc(C[C@@H]2NC(=O)[C@H](CC(=O)O)NC(=O)[C@H](Cc3ccc(OCC(=O)O)cc3)NC(=O)[C@H](CN)NC(=O)CSC[C@@H](C(=O)N[C@@H](CC(=O)O)C(=O)NCCOCCOCC(=O)NCCCCCCCCCCC(=O)O)NC(=O)[C@@H](CO)NC(=O)[C@H](C(C)C)NC(=O)[C@H](CC3CCCCC3)NC(=O)[C@H](CCN)NC(=O)[C@@H](CC(C)C)NC(=O)[C@H](CCCN)NC(=O)[C@H](CCCNC(N)=O)NC(=O)[C@H](Cc3ccc(-c4ccccc4)cc3)NC(=O)[C@H](C(C)C)NC2=O)c1` [Compound 2021] ({CH2CO}-[Dap]Y(Carboxymethyl)D[Phe(3-Me)]V[Bip][Cit][Orn][dL][Dab][Cha]V[dS]CD[AEEA][Aun]-OH; thioether N-14), the IC50 amounted to 30.8 nM.

Values taken from patent publication US20260022142A1, “MACROCYCLIC IMMUNOMODULATORS” (Bristol-Myers Squibb Company, priority 2022, published 2026).
